Laboratory results from the supplement of paper PMC10307832.

Tests used:
Experiment in all cases: relative viability (nuclei count vs DMSO), 5 days (fraction); higher = more cells survive
IU1-47 + Navitoclax = compound: CC1=CC(=C(N1C2=CC=C(C=C2)Cl)C)C(=O)CN3CCCCC3 [IU1-47] + CC1(C)CCC(c2ccc(Cl)cc2)=C(CN2CCN(c3ccc(C(=O)NS(=O)(=O)c4ccc(N[C@H](CCN5CCOCC5)CSc5ccccc5)c(S(=O)(=O)C(F)(F)F)c4)cc3)CC2)C1 [Navitoclax] (partner 0.5 µM)
Summary of the method: (§1)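 Lung cancer cell lines in 1536-well plates were dosed by pin tool the day after seeding, either with one drug alone or with a fixed anchor-drug dose plus five library-drug doses (not always all listed) in √10 steps. After 5 days, cells were fixed and their nuclei stained in one step (final 0.05% Triton X-100, 1% formaldehyde, 1 ug/ml Hoechst), then counted on 4× images. Relative viability is the nuclei count in treated wells divided by that in vehicle wells. Values are medians of duplicate plates.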

IU1-47 + Phenformin = compound: CC1=CC(=C(N1C2=CC=C(C=C2)Cl)C)C(=O)CN3CCCCC3 [IU1-47] + N=C(N)NC(=N)NCCc1ccccc1 [Phenformin] (partner 250 µM)
Summary of the method: as §1

FG-4592 + Alpelisib = compound: Cc1nc(C(=O)NCC(=O)O)c(O)c2ccc(Oc3ccccc3)cc12 [FG-4592] + Cc1nc(NC(=O)N2CCC[C@H]2C(N)=O)sc1-c1ccnc(C(C)(C)C(F)(F)F)c1 [Alpelisib] (partner 2 µM)
Summary of the method: as §1

FG-4592 + Pemetrexed = compound: Cc1nc(C(=O)NCC(=O)O)c(O)c2ccc(Oc3ccccc3)cc12 [FG-4592] + Nc1nc2[nH]cc(CCc3ccc(C(=O)N[C@@H](CCC(=O)O)C(=O)O)cc3)c2c(=O)[nH]1 [Pemetrexed] (partner 0.2 µM)
Summary of the method: as §1

## UMC-11
IU1-47 + Navitoclax; first compound 0.08 µM
  relative viability: 0.297
IU1-47 + Navitoclax; first compound 0.253 µM
  relative viability: 0.315
IU1-47 + Navitoclax; first compound 0.8 µM
  relative viability: 0.329
IU1-47 + Navitoclax; first compound 2.53 µM
  relative viability: 0.349
IU1-47 + Navitoclax; first compound 8 µM
  relative viability: 0.313
IU1-47 + Phenformin; first compound 0.08 µM
  relative viability: 0.315
IU1-47 + Phenformin; first compound 0.253 µM
  relative viability: 0.326
IU1-47 + Phenformin; first compound 0.8 µM
  relative viability: 0.322
IU1-47 + Phenformin; first compound 2.53 µM
  relative viability: 0.349
IU1-47 + Phenformin; first compound 8 µM
  relative viability: 0.367
FG-4592 + Alpelisib; first compound 0.08 µM
  relative viability: 1.03
FG-4592 + Alpelisib; first compound 0.253 µM
  relative viability: 0.944
FG-4592 + Alpelisib; first compound 0.8 µM
  relative viability: 1
FG-4592 + Alpelisib; first compound 2.53 µM
  relative viability: 1.18
FG-4592 + Alpelisib; first compound 8 µM
  relative viability: 0.998
FG-4592 + Pemetrexed; first compound 0.08 µM
  relative viability: 0.738
FG-4592 + Pemetrexed; first compound 0.253 µM
  relative viability: 0.867
FG-4592 + Pemetrexed; first compound 0.8 µM
  relative viability: 0.843
FG-4592 + Pemetrexed; first compound 2.53 µM
  relative viability: 0.791
FG-4592 + Pemetrexed; first compound 8 µM
  relative viability: 0.688
